What all share (assay type): in vivo
In assay [1] the test system is giant foxtail (Setaria faberi, SETFA). The experiment in a line: Test A pre-emergence, giant foxtail. The settings on record: after 13 d. The essentials: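 Pots of soil sown, sprayed at day 1 post-sowing: test compound at 15.625/62.5/250 g/ha in acetone:water 1:1 + 0.5% Tween 20. Glasshouse 24/16° C., 14 h light, 65% RH, watering twice daily. Readout: % damage after 13 d.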

Assay [2] concerns redroot pigweed (Amaranthus retroflexus, AMARE). Nature of the assay: Test A post-emergence, redroot pigweed. The following applies: after 13 d. The essentials:
(§1)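 Plants sown in standard soil were grown 8 d in a glasshouse (24/16 °C day/night, 14 h light, 65% humidity), then sprayed with compound in acetone/water (50:50) with 0.5% Tween 20 at 15.625, 62.5 or 250 g/ha. Damage was scored after 13 d (0 = none, 100 = total).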

The next assay concerns corn (Zea mays, ZEAMX). The experiment in a line: Test A post-emergence, corn. The settings on record: after 13 d. The procedure, abridged:
as §1

In assay [3] the test system is giant foxtail (Setaria faberi, SETFA). Nature of the assay: Test A post-emergence, giant foxtail. The settings on record: after 13 d. The essentials: as §1
In the next assay the test system is maize. Nature of the assay: Test D pre-emergence, maize seed treated with a herbicide safener. The settings on record: ZEAMX, preemergent, 20 DAA. As for the experimental part:
A formulation containing 50 g/L of the test chemical was prepared by dissolving the active ingredient in a mixture of organic solvents and emulsifier, details of which are provided in the table. This formulation was then mixed with a small, variable amount of acetone to aid dissolution, before addition of a 0.2% v/v aqueous solution of an adjuvant, as the aqueous diluent, to form an aqueous spray solution which contains a predetermined concentration of the active ingredient.
This aqueous spray solution was then sprayed onto plants including maize and wheat that had been seed treated with a herbicide safener, after one day's cultivation (for pre-emergence) or after about 12 days' cultivation (for post-emergence). The plants were grown from seeds sown in standard soil, placed in a glasshouse under controlled conditions (at 24/18° C. or 20/16° C., day/night; 16 h light; 65% humidity). After spray application the plants were then grown in a glasshouse under the same conditions and watered twice daily. After 15 d for post-emergence and 20 DAA for pre-emergence the test was evaluated (100=total damage to plant; 0=no damage to plant).

The test system of assay [4] is velvetleaf (Abutilon theophrasti, ABUTH). The experiment in a line: Test A post-emergence, velvetleaf. The settings on record: after 13 d. The procedure, abridged:
as §1

As to `CN1CC(c2cc(C(F)(F)F)n(C)n2)C(C(=O)Nc2ccc(F)c(F)c2F)C1=O` (racemic) [Compound 17], the “damage to plant (100=total damage; 0=no damage) SETFA” value was 90 in assay [1] (Pre-Emergence at 15.625 g/ha); 90 in assay [1] (Pre-Emergence at 62.5 g/ha); 90 in assay [1] (Pre-Emergence at 250 g/ha); 60 in assay [3] (Post-Emergence at 15.625 g/ha); 70 in assay [3] (Post-Emergence at 62.5 g/ha); 80 in assay [3] (Post-Emergence at 250 g/ha). Moreover, the “damage to plant (100=total damage; 0=no damage) AMARE” value is given as 0 in assay [2] (Post-Emergence at 15.625 g/ha), 20 in assay [2] (Post-Emergence at 62.5 g/ha) and 50 in assay [2] (Post-Emergence at 250 g/ha). Further, the “damage to plant (100=total damage; 0=no damage) ZEAMX” value turned out to be 10 with corn (Zea mays, ZEAMX) (Post-Emergence at 15.625 g/ha); 50 in the assay with corn (Zea mays, ZEAMX) (Post-Emergence at 62.5 g/ha); 80 in the assay with corn (Zea mays, ZEAMX) (Post-Emergence at 250 g/ha). Besides, the “damage to plant (100=total damage to plant; 0=no damage to plant), ZEAMX” value in the assay with maize (rate 15) turned out to be 0; in the assay with maize (rate 30) it was 0; in the assay on maize (rate 60), 0; in the assay with maize (rate 130) it was 0; in the assay with maize (rate 250) it was 10; in the assay on maize (rate 500), 30. Further, the “damage to plant (100=total damage; 0=no damage) ABUTH” value in assay [4] (Post-Emergence at 15.625 g/ha), in assay [4] (Post-Emergence at 62.5 g/ha) and in assay [4] (Post-Emergence at 250 g/ha) was 0 throughout.

On to `CCn1nc([C@H]2CN(C)C(=O)[C@@H]2C(=O)Nc2cccc(F)c2F)c2cc(F)ccc21` [Compound 8], for which the “damage to plant (100=total damage; 0=no damage) SETFA” value in assay [1] (Pre-Emergence at 15.625 g/ha) is reported as 80; in assay [1] (Pre-Emergence at 62.5 g/ha), 90; in assay [1] (Pre-Emergence at 250 g/ha), 90; in assay [3] (Post-Emergence at 15.625 g/ha) it was 70; in assay [3] (Post-Emergence at 62.5 g/ha) it was 70; in assay [3] (Post-Emergence at 250 g/ha) it was 80. For the same molecule, the “damage to plant (100=total damage; 0=no damage) AMARE” value in assay [2] (Post-Emergence at 15.625 g/ha), in assay [2] (Post-Emergence at 62.5 g/ha) and in assay [2] (Post-Emergence at 250 g/ha) was 0 in each case. In addition, the “damage to plant (100=total damage; 0=no damage) ZEAMX” value is 20 with corn (Zea mays, ZEAMX) (Post-Emergence at 15.625 g/ha); 60 with corn (Zea mays, ZEAMX) (Post-Emergence at 62.5 g/ha); 80 in the assay on corn (Zea mays, ZEAMX) (Post-Emergence at 250 g/ha). Besides, the “damage to plant (100=total damage to plant; 0=no damage to plant), ZEAMX” value in the assay with maize (rate 15) was 0; in the assay with maize (rate 30) it was 0; in the assay on maize (rate 60), 0; in the assay on maize (rate 130) it was 0; in the assay on maize (rate 250) it was 0; in the assay on maize (rate 500), 10. The “damage to plant (100=total damage; 0=no damage) ABUTH” value in assay [4] (Post-Emergence at 15.625 g/ha), in assay [4] (Post-Emergence at 62.5 g/ha) and in assay [4] (Post-Emergence at 250 g/ha) was 0 each time.

Turning to `CN1CC(c2cc(C(F)(F)F)n(C)n2)C(C(=O)Nc2ccc(F)cc2F)C1=O` (racemic) [Compound 6], the “damage to plant (100=total damage; 0=no damage) SETFA” value stood at 80 in assay [1] (Pre-Emergence at 15.625 g/ha); 90 in assay [1] (Pre-Emergence at 62.5 g/ha); 90 in assay [1] (Pre-Emergence at 250 g/ha); 0 in assay [3] (Post-Emergence at 15.625 g/ha); 70 in assay [3] (Post-Emergence at 62.5 g/ha); 70 in assay [3] (Post-Emergence at 250 g/ha). Moreover, the “damage to plant (100=total damage; 0=no damage) AMARE” value in assay [2] (Post-Emergence at 15.625 g/ha) stood at 0; in assay [2] (Post-Emergence at 62.5 g/ha), 10; in assay [2] (Post-Emergence at 250 g/ha) it was 10. Moreover, the “damage to plant (100=total damage; 0=no damage) ZEAMX” value turned out to be 10 in the assay on corn (Zea mays, ZEAMX) (Post-Emergence at 15.625 g/ha); 20 with corn (Zea mays, ZEAMX) (Post-Emergence at 62.5 g/ha); 60 in the assay on corn (Zea mays, ZEAMX) (Post-Emergence at 250 g/ha). The “damage to plant (100=total damage to plant; 0=no damage to plant), ZEAMX” value in the assay with maize (rate 15), in the assay with maize (rate 30), with maize (rate 60), in the assay on maize (rate 130), in the assay with maize (rate 250) and with maize (rate 500) was 0 throughout. For the same molecule, the “damage to plant (100=total damage; 0=no damage) ABUTH” value in assay [4] (Post-Emergence at 15.625 g/ha) was 60; in assay [4] (Post-Emergence at 62.5 g/ha) it was 70; in assay [4] (Post-Emergence at 250 g/ha), 60.

Turning to `COc1c(F)cccc1NC(=O)C1C(=O)N(C)CC1c1cc(C(F)(F)F)n(C)n1` (racemic) [Compound 18], the “damage to plant (100=total damage; 0=no damage) SETFA” value in assay [1] (Pre-Emergence at 15.625 g/ha) was determined as 90; in assay [1] (Pre-Emergence at 62.5 g/ha) it was 90; in assay [1] (Pre-Emergence at 250 g/ha), 90; in assay [3] (Post-Emergence at 15.625 g/ha), 50; in assay [3] (Post-Emergence at 62.5 g/ha), 70; in assay [3] (Post-Emergence at 250 g/ha), 70. Also, the “damage to plant (100=total damage; 0=no damage) AMARE” value in assay [2] (Post-Emergence at 15.625 g/ha), in assay [2] (Post-Emergence at 62.5 g/ha) and in assay [2] (Post-Emergence at 250 g/ha) was 0 in each case. In addition, the “damage to plant (100=total damage; 0=no damage) ZEAMX” value in the assay with corn (Zea mays, ZEAMX) (Post-Emergence at 15.625 g/ha) stood at 0; in the assay with corn (Zea mays, ZEAMX) (Post-Emergence at 62.5 g/ha) it was 30; in the assay with corn (Zea mays, ZEAMX) (Post-Emergence at 250 g/ha) it was 80. In addition, the “damage to plant (100=total damage to plant; 0=no damage to plant), ZEAMX” value in the assay with maize (rate 15), in the assay on maize (rate 30), with maize (rate 60), in the assay with maize (rate 130), with maize (rate 250) and in the assay on maize (rate 500) was 0 each time. For the same molecule, the “damage to plant (100=total damage; 0=no damage) ABUTH” value in assay [4] (Post-Emergence at 15.625 g/ha), in assay [4] (Post-Emergence at 62.5 g/ha) and in assay [4] (Post-Emergence at 250 g/ha) was 0 throughout.

Turning to `CCn1nc([C@@H]2CN(C)C(=O)[C@H]2C(=O)Nc2cccc(F)c2F)c2cccc(F)c21` [Compound 14], the “damage to plant (100=total damage; 0=no damage) SETFA” value in assay [1] (Pre-Emergence at 15.625 g/ha) worked out at 60; in assay [1] (Pre-Emergence at 62.5 g/ha) it was 90; in assay [1] (Pre-Emergence at 250 g/ha) it was 90; in assay [3] (Post-Emergence at 15.625 g/ha) it was 80; in assay [3] (Post-Emergence at 62.5 g/ha), 80; in assay [3] (Post-Emergence at 250 g/ha), 90. The “damage to plant (100=total damage; 0=no damage) AMARE” value in assay [2] (Post-Emergence at 15.625 g/ha), in assay [2] (Post-Emergence at 62.5 g/ha) and in assay [2] (Post-Emergence at 250 g/ha) was 0 each time. For the same molecule, the “damage to plant (100=total damage; 0=no damage) ZEAMX” value with corn (Zea mays, ZEAMX) (Post-Emergence at 15.625 g/ha) is on record as 70; with corn (Zea mays, ZEAMX) (Post-Emergence at 62.5 g/ha) it was 70; in the assay with corn (Zea mays, ZEAMX) (Post-Emergence at 250 g/ha), 80. Moreover, the “damage to plant (100=total damage to plant; 0=no damage to plant), ZEAMX” value was determined as 0 in the assay on maize (rate 15); 0 with maize (rate 30); 0 in the assay on maize (rate 60); 10 in the assay with maize (rate 130); 20 in the assay with maize (rate 250); 50 in the assay on maize (rate 500). For the same molecule, the “damage to plant (100=total damage; 0=no damage) ABUTH” value in assay [4] (Post-Emergence at 15.625 g/ha), in assay [4] (Post-Emergence at 62.5 g/ha) and in assay [4] (Post-Emergence at 250 g/ha) was 0 in each case.

These data come from US20220281848A1, “PYRAZOLE-SUBSTITUTED PYRROLIDINONES AS HERBICIDES” (FMC Corporation, priority 2019, published 2022).
